In ChEMBL document CHEMBL5725391, “1,3-diaminocyclopentane carboxamide derivatives” (2017) one finds IC50 data, which are given here for seven compounds.

Where only a bound is given, the exact number is not on record here.

The assay deals with Fatty acid synthase (Homo sapiens, UniProt P49327). Put plainly: Biochemical Assay of FASN: The biochemical FASN activity testing was performed as 384 well two-time-point kinetic fluorescence intensity assay format in Greiner low volume medium binding 384-well black microtiter plates in a total assay volume of 8 μl and was used for high throughput screen. In each well 3 μl 40 nM human recombinant full-length fatty acid synthase (produced in-house in SF9 cells) were dispensed in the following assay buffer: 50 mM potassium phosphate buffer pH 7.0, 0.005% (w/v) BSA, 2 mM Glutathione, 0.02% Tween-20. Then 2 μl of 200 μM NADPH in assay buffer were added, followed by the addition of the test compounds in 10 dilution concentrations starting with 30 μM (final concentration) to get a final DMSO content of 1% (v/v). The mixture was incubated for at least 15 min at room temperature. After the pre-incubation the enzymatic reaction was started by the addition of 2 μl substrate solution (80 μM acetyl-CoA, 240 μM malonyl-CoA). A first fluorescence intensity measurement (time point one) was performed with an Envision multimode reader (Perkin Elmer LAS Germany GmbH) at excitation wavelength 340 nm (lamp mode) and emission wavelength 460 nm. The reaction was incubated for 30 minutes at room temperature. After this the fluorescence intensity was measured again in the Envision using the same parameters as described above (second time point measurement). The data were analysed by subtracting the first time point measurement value from the second time point measurement value (after the enzymatic reaction). The differences of the emission signals were determined. These reflect directly the conversion rate of NADPH. The full value used was the inhibitor-free reaction. A pharmacological zero value was used like GSK837149A (Sigma-Aldrich) in a final concentration of 5-10 μM. The inhibitory values (IC50) were determined using either the program Symyx Assay Explorer® or Condosseo® from GeneData.
Sequence of Fatty acid synthase (P49327 whole entry): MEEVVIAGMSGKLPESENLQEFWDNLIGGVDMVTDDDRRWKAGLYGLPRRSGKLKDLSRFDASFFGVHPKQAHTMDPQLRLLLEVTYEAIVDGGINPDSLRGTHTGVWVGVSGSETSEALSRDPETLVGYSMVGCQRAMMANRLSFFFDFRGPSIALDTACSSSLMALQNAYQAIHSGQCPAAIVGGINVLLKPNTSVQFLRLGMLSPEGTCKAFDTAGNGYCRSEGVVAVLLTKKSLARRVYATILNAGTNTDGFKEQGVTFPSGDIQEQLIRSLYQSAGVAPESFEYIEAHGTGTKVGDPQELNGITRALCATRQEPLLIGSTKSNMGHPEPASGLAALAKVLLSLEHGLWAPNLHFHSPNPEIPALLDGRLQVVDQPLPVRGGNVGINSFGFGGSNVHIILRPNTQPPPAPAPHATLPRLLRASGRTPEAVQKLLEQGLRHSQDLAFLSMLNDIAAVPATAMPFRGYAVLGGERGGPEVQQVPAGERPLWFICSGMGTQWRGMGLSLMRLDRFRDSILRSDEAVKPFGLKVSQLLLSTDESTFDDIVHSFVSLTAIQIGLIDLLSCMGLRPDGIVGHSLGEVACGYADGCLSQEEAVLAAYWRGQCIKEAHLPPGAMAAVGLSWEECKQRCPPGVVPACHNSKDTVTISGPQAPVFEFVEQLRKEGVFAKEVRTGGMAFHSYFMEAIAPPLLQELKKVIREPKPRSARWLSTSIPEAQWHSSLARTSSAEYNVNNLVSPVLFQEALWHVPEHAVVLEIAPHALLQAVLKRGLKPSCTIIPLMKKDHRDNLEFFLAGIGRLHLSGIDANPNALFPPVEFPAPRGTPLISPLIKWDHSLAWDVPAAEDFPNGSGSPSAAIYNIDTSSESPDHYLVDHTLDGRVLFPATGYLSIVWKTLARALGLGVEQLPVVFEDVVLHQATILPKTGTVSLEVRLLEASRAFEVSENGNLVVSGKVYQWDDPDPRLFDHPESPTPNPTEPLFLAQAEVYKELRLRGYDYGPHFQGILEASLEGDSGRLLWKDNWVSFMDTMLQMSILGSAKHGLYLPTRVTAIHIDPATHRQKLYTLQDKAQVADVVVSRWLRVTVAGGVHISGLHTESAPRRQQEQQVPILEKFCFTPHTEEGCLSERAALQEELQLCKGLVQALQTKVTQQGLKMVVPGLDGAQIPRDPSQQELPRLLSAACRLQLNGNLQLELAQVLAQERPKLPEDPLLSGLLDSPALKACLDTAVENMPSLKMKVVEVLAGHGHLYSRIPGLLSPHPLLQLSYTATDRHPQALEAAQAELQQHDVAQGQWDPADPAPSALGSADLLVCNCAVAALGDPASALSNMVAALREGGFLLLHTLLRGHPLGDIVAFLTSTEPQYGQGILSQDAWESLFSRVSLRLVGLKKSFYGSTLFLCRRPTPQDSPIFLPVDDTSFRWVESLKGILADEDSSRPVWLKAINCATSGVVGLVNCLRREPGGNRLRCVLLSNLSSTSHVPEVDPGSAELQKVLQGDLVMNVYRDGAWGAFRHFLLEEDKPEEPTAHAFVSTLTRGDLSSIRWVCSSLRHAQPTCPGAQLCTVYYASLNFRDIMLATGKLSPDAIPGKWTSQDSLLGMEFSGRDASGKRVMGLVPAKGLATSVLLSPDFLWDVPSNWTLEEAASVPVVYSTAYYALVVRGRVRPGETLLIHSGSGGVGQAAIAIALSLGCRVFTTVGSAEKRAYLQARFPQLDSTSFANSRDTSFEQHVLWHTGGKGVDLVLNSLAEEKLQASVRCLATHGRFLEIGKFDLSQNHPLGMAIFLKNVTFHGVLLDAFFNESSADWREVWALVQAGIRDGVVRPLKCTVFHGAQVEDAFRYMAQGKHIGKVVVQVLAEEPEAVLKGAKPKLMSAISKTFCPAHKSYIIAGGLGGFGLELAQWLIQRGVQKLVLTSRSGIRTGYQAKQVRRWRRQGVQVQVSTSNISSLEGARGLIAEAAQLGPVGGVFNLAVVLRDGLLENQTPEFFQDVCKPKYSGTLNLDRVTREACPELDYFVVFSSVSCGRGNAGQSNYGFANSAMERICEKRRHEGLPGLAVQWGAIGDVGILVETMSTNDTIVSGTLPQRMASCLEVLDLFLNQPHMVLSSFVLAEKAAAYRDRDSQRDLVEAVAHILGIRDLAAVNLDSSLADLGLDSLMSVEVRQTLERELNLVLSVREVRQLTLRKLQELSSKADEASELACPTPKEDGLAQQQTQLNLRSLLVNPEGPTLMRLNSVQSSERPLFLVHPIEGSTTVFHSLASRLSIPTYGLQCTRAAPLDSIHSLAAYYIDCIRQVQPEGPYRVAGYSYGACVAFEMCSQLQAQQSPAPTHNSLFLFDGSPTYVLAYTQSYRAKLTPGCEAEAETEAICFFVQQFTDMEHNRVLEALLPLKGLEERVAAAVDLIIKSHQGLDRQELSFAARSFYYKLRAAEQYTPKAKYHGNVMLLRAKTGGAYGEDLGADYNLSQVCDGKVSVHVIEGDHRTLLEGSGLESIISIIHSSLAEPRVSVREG

As for `CCC(=O)N[C@H]1CC[C@@H](N(C)C(=O)c2ccc(-c3cc(F)c4[nH]cc(C(N)=O)c4c3)cc2)C1`, the half-inhibitory concentration (IC50) (in general, the midpoint of a concentration-inhibition curve) is less than 300 nM.

On to `CN(C(=O)c1ccc(-c2nc3ccccc3o2)cc1F)[C@@H]1CC[C@H](NC(=O)[C@@H]2CCCO2)C1`, for which the IC50 was less than 300 nM.

Regarding `CCC(=O)N[C@H]1CC[C@@H](N(C)C(=O)c2cnc(-c3ccc4[nH]ccc4c3)s2)C1`, the IC50 is less than 300 nM.

Consider `CCC(=O)N[C@H]1CC[C@@H](N(C)C(=O)c2sc(-c3ccc4[nH]ccc4c3)nc2C)C1`, for which the 50% inhibitory concentration (IC50) was less than 300 nM.

On to `CCC(=O)N[C@H]1CC[C@@H](N(C)C(=O)c2ccc(-c3ccc4[nH]cc(F)c4c3)nc2)C1`, for which the IC50 is less than 300 nM.

For the compound `CCC(=O)N[C@H]1CC[C@@H](N(C)C(=O)c2ccc(-c3ccc(C#N)cc3F)cc2)C1`, the IC50 was less than 300 nM.

As to `CCC(=O)N[C@H]1CC[C@@H](N(C)C(=O)c2ccc(-c3cccc4[nH]ncc34)cc2)C1`, the IC50 is less than 300 nM.
